In patent publication US20020107235A1, “Glucocorticoid receptor modulators” (priority 2000, published 2002):

How the values were obtained:
[1] = test system: MMP-1 (Matrix Metalloproteinase-1) production in SW1353 human chondrosarcoma cells; experiment: glucocorticoid inhibition of IL-1 induced MMP-1 production in human chondrosarcoma cells; assay type: cell-based; settings: 20 ng/ml IL-1 beta, 72 hours after IL-1 addition, ELISA, read-out: IC50, inhibitor of MMP1 expression
Description: (§1) This assay, the glucocorticoid inhibition of IL-1 (Interleukin-1) induced MMP-1 (Matrix Metalloproteinase-1) and IL-8 (Interleukin-8) production in human chondrosarcoma cells, is conducted as follows: SW1353 human chondrosarcoma cells (obtained from ATCC) from passage 12 through passage 19 are used in a 96 well format assay. Cells are plated at confluence into 96 well plates in DMEM (Dulbecco's Modified Eagle Medium) with 10% fetal bovine serum and incubated at 37° C., 5% CO2. After 24 hours, serum containing media is removed and replaced with 200 ul/well DMEM containing 1 mg/L insulin, 2 g/L lactalbumin hydrosylate, and 0.5 mg/L ascorbic acid and returned to incubation at 37° C., 5% CO2. […] IL-8 production is assessed using the Quantikine human IL-8 ELISA kit from R&D Systems (D8050) on samples diluted 60-fold in RD5P Calibrator Diluent, following the manufacturer's protocol. The percent of the average IL-1 control is determined for the average of each of the triplicate samples following subtraction of the average signal from untreated cells. IC50's are determined from log linear plots of the percent of control versus the concentration of inhibitor. […] MMP-1 production is assessed via the Bio-Trak MMP-1 ELISA kit from Amersham (RPN2610) on 100 ul of neat sample following the manufacturer's protocol. […]

[2] = test system: IL-8 (Interleukin-8) production in SW1353 human chondrosarcoma cells; experiment: glucocorticoid inhibition of IL-1 induced IL-8 production in human chondrosarcoma cells; assay type: cell-based; settings: 20 ng/ml IL-1 beta, 24 hours after addition of IL-1, ELISA, read-out: IC50, inhibitor of IL-8 expression
Description: as §1

C[C@@H]1C[C@H]2[C@@H]3CCC4=CC(=O)C=C[C@]4(C)[C@@]3(F)[C@@H](O)C[C@]2(C)[C@@]1(O)C(=O)CO [Dexamethasone, (11β, 16α)-9-fluoro-11,17,21-trihydroxy-16-methylpregna-1,4-diene-3,20-dione]
IC50 [1]: 5 nM | IC50 [2]: 5 nM
